The text below walks through data of patent US20160220738A1, “PROGESTERONE-CONTAINING COMPOSITIONS AND DEVICES” (priority 2007, published 2016).

For one assay, the system named is vascular SMCs. The note with it: cited from earlier work.
Assay [1] deals with platelet suspensions or whole blood. The note with it: in vitro; cited from earlier work.
The next assay relates to ECs. As to conditions: cited from earlier work.
In a further assay the test system is V189 (VEGF189). The note with it: perivascular decidual endometrial cells, mid-late secretory phase and early gestation; cited from earlier work.
Assay [2] deals with human coronary endothelial cells (HCEC). Briefly: Human coronary endothelial cell growth (Example 14). It is filed as cell-based. The method, then: In addition, cells will be grown for 5 and 7 days. For cell cultures grown longer than 3 days, culture medium is changed twice weekly, according to standard protocols in the art, and includes antibiotics and other standard additives as appropriate. […] Addition of the progesterone-treated or control (untreated) medium to the cells was counted as day 0. […] Cell cultures were maintained at 37° C. in an atmosphere containing 5% carbon dioxide. Appropriate precautions were taken to prevent accelerated breakdown, including protection of the cell cultures from light. Cultured human coronary endothelial and smooth muscle cells were obtained from commercial services. […] Dilutions were prepared using ethanol such that the total quantity of ethanolic drug volume added to any experimental culture was 10 μL. For proliferation and apoptosis studies, EC or SMC was seeded in multiple culture wells at a density of 5,000 cells/cm^2. […] Cell counts were conducted at days 1, 3, and 5 and will be conducted at day 7, using a Coulter counter. From these counts, the influence of the drug concentration on cell growth rate was calculated. Sampling and analysis of endothelial cells is performed as follows. At each time point, triplicate samples are analyzed for growth measurements. The rate of cell proliferation is assayed by counting the number of cells across the 8 day growth period. Absolute cell density is measured with a Coulter Counter. Cell viability is determined by a live-dead cell apoptosis assay (Molecular Probes, Inc.).

In assay [3] the test system is human coronary smooth muscle cell (HCSMC). Briefly: Human coronary smooth muscle cell proliferation (Example 14). It is filed as cell-based. The note with it: for difference in growth of progesterone treated SMC versus control: 30 μg/ml; for Average Number of Cells/dish / SMC proliferation (in words): HCSMC, progesterone 30 μg/ml; for SMC proliferation (in words): days 1, 3, 5. The method, then:
In addition, cells will be grown for 5 and 7 days. For cell cultures grown longer than 3 days, culture medium is changed twice weekly, according to standard protocols in the art, and includes antibiotics and other standard additives as appropriate.
(§1) Cell cultures were maintained at 37° C. in an atmosphere containing 5% carbon dioxide. Appropriate precautions were taken to prevent accelerated breakdown, including protection of the cell cultures from light.
Cultured human coronary endothelial and smooth muscle cells were obtained from commercial services. […] Dilutions were prepared using ethanol such that the total quantity of ethanolic drug volume added to any experimental culture was 10 μL. For proliferation and apoptosis studies, EC or SMC was seeded in multiple culture wells at a density of 5,000 cells/cm^2. […] Cell counts were conducted at days 1, 3, and 5 and will be conducted at day 7, using a Coulter counter. From these counts, the influence of the drug concentration on cell growth rate was calculated.
Sampling and analysis of SMC is performed as follows. At each time point, triplicate samples are analyzed for growth measurements. The rate of cell proliferation is assayed by counting the number of cells across the 8 day growth period. Absolute cell density is measured with a Coulter Counter. Cell viability is determined by a live-dead cell apoptosis assay (Molecular Probes, Inc.).

For assay [4], the system named is human infragenicular VSMCs. The assay is described as follows: Human infragenicular VSMC proliferation under high glucose and insulin (Example 12). The assay is classed as cell-based. The note with it: progesterone 10 ng/mL, glucose 100/200 mg/dL, insulin 0/100 ng/mL, day 6. The method, then: Methods are according to 2002 J Vasc Surg 36, 833-838, except as otherwise noted.
Human infragenicular VSMCs are isolated from the tibial arteries of male patients with diabetes undergoing lower extremity amputation. Immunocytochemical studies with confocal microscopy are performed for progesterone receptor identification in these VSMCs. Cells are grown to subconfluence, followed by exposure to deprived media with various glucose (100 and 200 mg/dL) and insulin (no insulin and 100 ng/mL) concentrations. […] Cell count and methyl-3H-thymidine incorporation are used to determine cellular proliferation. Cell count with hemocytometry is performed on day 6. DNA synthesis as reflected through methyl-3H-thymidine incorporation is measured at 24 hours.

For assay [5], the system named is human aortic smooth muscle cells. Briefly: Human aortic smooth muscle cell proliferation (Example 10). It is filed as cell-based. The note with it: HASMC, progesterone 10 μg/ml; for smooth muscle cell proliferation (in words): up to 8 days. The method, then:
For cell cultures grown longer than 3 days, culture medium was changed twice weekly, according to standard protocols in the art, and included antibiotics and other standard additives as appropriate.
as §1
At each timepoint, triplicate samples were analyzed via growth measurements. The rate of cell proliferation was assayed by counting the number of cells across the 8 day growth period. Absolute cell density was measured with a Coulter Counter. Cell viability was determined by trypan blue staining.

Assay [6] deals with primary astrocyte cultures. Briefly: Glucose transport inhibition in astrocytes (Example 13). The assay is classed as cell-based, rat. As to conditions: 24 hours exposure.
The test system of a further assay is HAEC. As to conditions: cited from earlier work.
The test system of assay [7] is human aortic endothelial cells (HAEC) or U937 monocytic cells. As to conditions: d-alpha-tocopherol 20, 40, 60 micromol/l for 20 h, IL-1beta stimulated; cited from earlier work.

“Also recorded” adds a separate entry of the source.

With `CCCCCC/C=C/C=C\CCCCCCCC(=O)O` [C18:2c9t11, rumenic acid], the “secretion of eicosanoids (PGI2 and PGE2)” value in the assay with vascular SMCs was “attenuate secretion of eicosanoids”. In addition, the platelet aggregation entry in assay [1] is given as “inhibit platelet aggregation”. Besides, the “EC production of PAF” value in the assay on ECs is recorded as “inhibit EC production of PAF”.

On to `CCCCCC/C=C/C=C/CCCCCCCC(=O)O` [C18:2t9t11], for which the platelet aggregation entry in [1] is “inhibit platelet aggregation”.

Regarding `CCCCC/C=C\C=C\CCCCCCCCC(=O)O` [C18:2t10c12], the “secretion of eicosanoids (PGI2 and PGE2)” value in the assay with vascular SMCs is on record as “attenuate secretion of eicosanoids”. Further, in [1], the platelet aggregation entry is “inhibit platelet aggregation”. In the assay with ECs, the “EC production of PAF” value is given as “inhibit EC production of PAF”.

For the compound `CC(=O)[C@H]1CC[C@H]2[C@@H]3CCC4=CC(=O)CC[C@]4(C)[C@H]3CC[C@]12C` [Progesterone, pregn-4-ene-3,20-dione], in the assay on V189 (VEGF189), the V189 expression entry is reported as “selectively increases”. Moreover, the “increase in growth of the progesterone treated EC versus control” value in assay [2] (30 μg/ml, day 1) is recorded as 5.3%. Besides, the “difference in growth of progesterone treated EC versus control” value is reported as 27.5% in assay [2] (30 μg/ml, day 3, increase) and 29.3% in [2] (30 μg/ml, day 5, increase). The “Average Number of Cells/dish” value in assay [2] (HCEC, progesterone 30 μg/ml, day 1) turned out to be 6207 Cells/dish; in assay [2] (HCEC, progesterone 30 μg/ml, day 3), 7227 Cells/dish; in assay [2] (HCEC, progesterone 30 μg/ml, day 5), 8658 Cells/dish; in [3] (day 1) it was 7092 Cells/dish; in assay [3] (day 3), 9492 Cells/dish; in [3] (day 5), 10844 Cells/dish. For the same compound, the “endothelial cell growth (in words)” value in assay [2] (HCEC, progesterone 30 μg/ml, days 1, 3, 5) was “promoted growth of the EC both on the first and third days; also recorded: enhanced endothelial cell growth; also recorded: increases endothelial cells”. Moreover, the “difference in growth of progesterone treated SMC versus control” value is 12.1% in [3] (day 1, inhibition); 20.8% in [3] (day 3, inhibition); 53.7% in assay [3] (day 5, inhibition). Also, the results for the “SMC proliferation (in words)” value in assay [3] and in [3] (listed as progesterone) were “decrease SMC's compared to control in a dose response fashion” and “showed inhibition of SMC on the first day of treatment; also recorded: inhibits SMC proliferation”, respectively. In addition, the “cellular proliferation by cell count” value in [4] was “significantly inhibited cellular proliferation”. Moreover, the “Average number of cells per dish” value in assay [5] (day 1) is reported as 7902 cells per dish; in assay [5] (day 3) it was 14871 cells per dish; in [5] (day 6) it was 17618 cells per dish; in assay [5] (day 8), 20018 cells per dish. The figures for the “smooth muscle cell proliferation (in words)” value in assay [5] and in assay [5] (listed as progesterone) were “decrease SMC's compared to control in a dose response fashion” and “inhibited smooth muscle cell proliferation”, respectively.

For the compound `C[C@]12CCC(=O)C=C1CC[C@@H]1[C@@H]2[C@@H](O)C[C@@]2(C)[C@H]1CC[C@]2(O)C(=O)CO` [cortisol], in assay [6], the “concentration inhibiting glucose transport” value is 1 µM.

Take `Cc1c(C)c2c(c(C)c1O)CC[C@@](C)(CCC[C@H](C)CCC[C@H](C)CCCC(C)C)O2` [vitamin E, d-alpha-tocopherol]: in the assay with HAEC (20, 40, 60 micromol/l), the “IL-1beta-induced productions of MCP-1 and IL-8” value is given as “dose-dependently suppressed”; the “IL-1beta-stimulated expression of ICAM-1, VCAM-1 and E-selectin” value is on record as “suppressed”. In addition, in the assay on HAEC (60 micromol/l), the IL-8 production result was “reduced IL-8 production significantly”. Also, in the assay on HAEC (at the doses used), the “IL-1beta-induced production of IL-6” value is “dose-dependently inhibited” and the “spontaneous production of IL-6” value is listed as “did not significantly change”. Moreover, the “spontaneous production of MCP-1” value in the assay with HAEC (up to 60 micromol/l) is “not effective”. In addition, the “adhesion of HAEC and U937 monocytic cells” value in assay [7] is recorded as “inhibited their adhesion”.
